Test results from patent US9434688B2, “Indole derivatives as selective androgen receptor modulators (SARMS)” (Janssen Pharmaceutica, NV, priority 2004, dated 2016).
“And” between values parts separate entries of the source, which are not always exact repeats. Equal values may be shown once.

biological target: T1, androgen receptor (Rattus norvegicus, UniProt P15207); experiment: Androgen Receptor Binding Using Rat Ventral Prostate Cytosol; design: from tissue; host or cells: ventral prostate cytosol of castrated male Sprague Dawley or Wistar rats; details: Rat Cytosol; Concentration 1000 nM
T1 sequence (P15207 1-902): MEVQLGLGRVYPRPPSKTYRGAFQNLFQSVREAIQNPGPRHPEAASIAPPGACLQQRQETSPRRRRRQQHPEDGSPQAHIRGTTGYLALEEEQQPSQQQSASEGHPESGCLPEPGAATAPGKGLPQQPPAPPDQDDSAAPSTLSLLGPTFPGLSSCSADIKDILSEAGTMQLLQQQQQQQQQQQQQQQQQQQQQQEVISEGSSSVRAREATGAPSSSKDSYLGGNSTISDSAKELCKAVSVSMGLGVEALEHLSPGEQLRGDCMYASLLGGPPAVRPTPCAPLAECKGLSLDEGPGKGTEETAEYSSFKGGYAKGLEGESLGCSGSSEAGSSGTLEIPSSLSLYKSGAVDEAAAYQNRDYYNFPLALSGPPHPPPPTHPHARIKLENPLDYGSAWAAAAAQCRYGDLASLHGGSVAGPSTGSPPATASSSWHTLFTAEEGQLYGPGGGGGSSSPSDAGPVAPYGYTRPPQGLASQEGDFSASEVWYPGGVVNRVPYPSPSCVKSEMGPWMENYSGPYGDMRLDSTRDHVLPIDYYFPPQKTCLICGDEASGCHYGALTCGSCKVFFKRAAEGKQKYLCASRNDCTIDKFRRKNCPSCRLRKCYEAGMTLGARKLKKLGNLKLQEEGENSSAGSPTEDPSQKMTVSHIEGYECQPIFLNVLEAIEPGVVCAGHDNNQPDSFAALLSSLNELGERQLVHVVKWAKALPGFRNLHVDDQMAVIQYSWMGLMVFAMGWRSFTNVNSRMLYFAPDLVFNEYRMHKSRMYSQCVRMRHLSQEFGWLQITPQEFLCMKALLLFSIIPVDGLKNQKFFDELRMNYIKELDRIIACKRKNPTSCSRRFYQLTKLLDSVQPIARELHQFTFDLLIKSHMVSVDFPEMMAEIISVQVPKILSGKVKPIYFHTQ
Description: Rat Prostate Cytosol Preparation:
Male Sprague Dawley or Wistar rats (Charles River, 200-300 g) were used for each preparation. The day before preparing the cytosol, the rats were castrated using standard surgical procedures.
The rats were euthanized by carbon dioxide asphyxiation. The rat prostates were quickly removed and placed on ice in pre-chilled, pre-weighed 50 mL plastic tubes. No more than five prostates were placed into one tube. The tubes were then weighed and the prostate tissue wet weights calculated.
To the chilled prostate tissue was then added […] of chilled homogenization buffer. The homogenization buffer was freshly prepared by mixing 10 mM Tris.HCl, pH 7.4, 1 mM sodium molybdate, 1.5 mM EDTA, 1 mM dithiothreitol, 10% (v/v) glycerol and 1% protease inhibitor cocktail (Sigma P 8340).
The prostate tissue was homogenized in a cold room using a pre-chilled Polytron PT3000 homogenizer (Brinkmann). Homogenization was performed at a speed setting of 20, three times for 10 sec bursts. The tubes containing the prostate tissue was kept on ice while homogenizing. The homogenate was allowed to rest on ice for 20 sec between bursts.
The homogenate was then placed into pre-chilled 3 mL polycarbonate ultracentrifuge tubes and centrifuged in the TLA-100 rotor of a TL-100 ultracentrifuge for 12 min at 100,000 rpm at 4° C. The resulting supernatant was stored in 1 mL aliquots at −80° C. until needed.
Binding to the androgen receptor was determined according to the protocol described in Example 86 using the above prepared rat cytosol.
% Inhibition was determined by testing dilutions of the test compound (usually duplicates of 10 μM) in the binding assay. Counts per well were measured and percents of inhibition determined. […] Counts per well were measured and IC50s determined by linear regression.

Row | SMILES | % Inhibition [%]
1 | CC(O)(Sc1ccc(Cl)c(Cl)c1)c1cc2cc([N+](=O)[O-])c(C(F)(F)F)cc2[nH]1 (racemic) [compound 254] | 41
2 | CC(O)(c1cc2cc([N+](=O)[O-])c(C(F)(F)F)cc2[nH]1)S(=O)(=O)c1ccc(Cl)c(Cl)c1 (racemic) [compound 255] | 26
3 | CC(O)(Sc1ccccc1)c1cc2cc([N+](=O)[O-])c(C(F)(F)F)cc2[nH]1 (racemic) [compound 258] | 35.4
4 | CC(O)(Sc1ccc(Cl)cc1)c1cc2cc(C#N)c(C(F)(F)F)cc2[nH]1 (racemic) [compound 261] | 14.05
5 | CC(O)(c1cc2cc(C#N)c(C(F)(F)F)cc2[nH]1)S(=O)(=O)c1ccc(Cl)cc1 (racemic) [compound 262] | −8.4
6 | CS(=O)(=O)n1c(C2(O)CCN(C(=O)c3ccc(Cl)cc3)CC2)cc2cc(Cl)c(C(F)(F)F)cc21 [compound 24] | 2

same assay, conditions: Rat Cytosol; Concentration 3000 nM

Row | SMILES | % Inhibition [%]
7 | CN(C)c1ccc(S(=O)(=O)CC(C)(O)c2cc3cc(Cl)c(C(F)(F)F)cc3[nH]2)cc1 (racemic) [compound 126] | −30
8 | CC(O)(CS(=O)(=O)Cc1ccccc1)c1cc2cc([N+](=O)[O-])c(C(F)(F)F)cc2[nH]1 (racemic) [compound 162] | 0.69
9 | CC(O)(Sc1ccc(N)cc1)c1cc2cc(Cl)c(C(F)(F)F)cc2[nH]1 (racemic) [compound 265] | 93.5
10 | CC(O)(Sc1ccc(N)cc1)c1cc2cc([N+](=O)[O-])c(C(F)(F)F)cc2[nH]1 (racemic) [compound 266] | 12.4

biological target: T1, androgen receptor; experiment: L929 Androgen Receptor Functional Assay, Adenovirus Transduction; assay type: cell-based; design: expressed in transfected cells; host or cells: L929 cells transduced with adenovirus AdEasy+rAR; details: L929 agonist testing; @ 8000 nM
Description: L929 cells were plated in 96-well plates at 20,000 cells per well, in DMEM/F12 (GIBCO) containing 10% (v/v) charcoal-treated fetal bovine serum (Hyclone) and lacking phenol red. The plates were then incubated overnight at 37° C. in 5% (v/v) humidified CO2.
Test compound dilutions were prepared in 100% (v/v) DMSO, if necessary. Each dilution was made to 1250× the final desired assay concentration.
First, 2 mL of DMEM/F12 lacking phenol red was pipetted into the wells of a 2-mL 96-well assay block. Next, 4 μL of the 1250× test compound dilutions were pipetted into each well of the assay block. The mixtures within the well were then carefully mixed by pipette.
In a 15 mL or 50 mL sterile centrifuge tube, a 2.5 nM (2.5×) dilution of R1881 (methyl-trienolone) in DMEM/F12 lacking phenol red was prepared.
In a second 15 mL or 50 mL centrifuge tube a solution containing an equal volume of DMEM to the first and an equal volume of 100% (v/v) DMSO to the volume of R1881 used in the first tube was prepared.
In a 15 mL or 50 mL sterile centrifuge tube, a dilution in DMEM/F12 of the adenovirus AdEasy+rAR at an moi of 1:500 per well was prepared.
The medium was removed from the 96-well plates by inversion and dried, inverted, very briefly. As soon as possible after medium removal, 40 μL of the diluted unlabeled test compound was added to each well, in duplicate. To each well designated for antagonist testing was added 40 μL of the 2.5 nM R1881 dilution to the wells for antagonist testing. To each well designated for agonist testing was added 40 μL of the DMSO dilution. Then 20 μL of the diluted adenovirus were added to all wells. The plates were incubated for 48 hours at 37° C. in 5% (v/v) humidified CO2.
To each well was added 100 μL of Steady-Glo luciferase assay substrate (Promega) and the plates were placed on a rotary shaker for 1 min. The plates were then incubated at room temperature in the dark for one hour. The contents of each well were then transferred to a white microtiter plate (Packard) and read on a Luminoskan Ascent (Thermo Lab Systems).
L929 AR percent activity was determined by testing dilutions of the test compound using a concentration of 3000 nM unless otherwise noted. L929 percent inhibition was determined by testing dilutions of the test compound using a concentration of 3000 nM. […] Luciferase activity per well were measured and EC50s and IC50s determined by linear regression.

Row | SMILES | % Activity
11 | CCSCC(C)(O)c1cc2cc(C#N)c(C(F)(F)F)cc2[nH]1 (single isomer, unassigned) [Compound #217, 2-(2-Ethylsulfanyl-1-hydroxy-1-methyl-ethyl)-6-trifluoromethyl-1H-indole-5-carbonitrile] | 0 @ 8000 nM %

same assay, conditions: L929 agonist testing; concentration of 3000 nM

Row | SMILES | % Activity [%]
12 | CC[S+]([O-])CC(O)c1cc2cc([N+](=O)[O-])c(C(F)(F)F)cc2[nH]1 (mixture of isomers) [compound 180] | 2
13 | CSCCC(C)(O)c1cc2cc(Cl)c(C(F)(F)F)cc2[nH]1 (racemic) [compound 51] | 2
14 | CN(C)c1ccc(S(=O)(=O)CC(C)(O)c2cc3cc(Cl)c(C(F)(F)F)cc3[nH]2)cc1 (racemic) [compound 126] | −5
15 | CC(O)(CS(=O)(=O)Cc1ccccc1)c1cc2cc([N+](=O)[O-])c(C(F)(F)F)cc2[nH]1 (racemic) [compound 162] | 2
16 | CCCSCC(C)(O)c1cc2cc(Cl)c(C(F)(F)F)cc2[nH]1 (racemic) [compound 196] | 13
17 | CC(O)(CSCc1ccco1)c1cc2cc([N+](=O)[O-])c(C(F)(F)F)cc2[nH]1 (racemic) [compound 198] | 7
18 | CC(O)(CS(=O)(=O)CC(F)(F)F)c1cc2cc([N+](=O)[O-])c(C(F)(F)F)cc2[nH]1 (racemic) [compound 208] | 1
19 | CC(O)(CSCC(F)(F)F)c1cc2cc(C#N)c(C(F)(F)F)cc2[nH]1 (racemic) [compound 211] | −1
20 | CCS(=O)(=O)CC(C)(O)c1cc2cc(C#N)c(C(F)(F)F)cc2n1C (racemic) [compound 240] | 0
21 | CC(O)(Sc1ccc(N)cc1)c1cc2cc(Cl)c(C(F)(F)F)cc2[nH]1 (racemic) [compound 265] | −1
22 | CC(O)(Sc1ccc(N)cc1)c1cc2cc([N+](=O)[O-])c(C(F)(F)F)cc2[nH]1 (racemic) [compound 266] | −4
23 | CSCCC(C)(O)c1cc2cc([N+](=O)[O-])c(C(F)(F)F)cc2[nH]1 (stereo not drawn) [compound 47] | 2
24 | COc1ccc(S(=O)(=O)CC(C)(O)c2cc3cc(Cl)c(C(F)(F)F)cc3n2S(C)(=O)=O)cc1 (stereo not drawn) [compound 128] | −4
25 | CC(O)(CSc1ccc(C(=O)O)cc1)c1cc2cc(Cl)c(C(F)(F)F)cc2n1S(C)(=O)=O (stereo not drawn) [compound 132] | −5
26 | CC(O)(CSc1ccc(C(=O)O)cc1)c1cc2cc(Cl)c(C(F)(F)F)cc2[nH]1 (stereo not drawn) [compound 133] | −4
27 | CC(O)(CS(C)(=O)=O)c1cc2cc(Cl)c(C(F)(F)F)cc2n1S(C)(=O)=O (stereo not drawn) [compound 137] | 0
28 | CC(C)CSCC(C)(O)c1cc2cc([N+](=O)[O-])c(C(F)(F)F)cc2[nH]1 (stereo not drawn) [compound 170] | 2

same assay, conditions: L929 agonist testing; concentration of 3000 nM; 3 µM

Row | SMILES | % Activity
29 | CSC(C)(O)c1cc2cc([N+](=O)[O-])c(C(F)(F)F)cc2[nH]1 (racemic) [compound 267] | −5% and 0%

same assay, conditions: L929 antagonist testing with R1881

Row | SMILES | IC50 [µM]
30 | CC[S+]([O-])CC(C)(O)c1[nH]c2cc(C(F)(F)F)c(C#N)cc2c1C (stereo not drawn) [compound 252] | 3.1
